Experimental data: patent publication US12371428B2 (Exelixis, Inc., priority 2019, dated 2025)
Structures can show the parent of a compound that is named as a salt.

Experiments:
[1] = molecular target: Mer (phospho-Mer, MERTK-transfected 293A cells) (Homo sapiens (Human), UniProt Q12866); assay: Mer autophosphorylation ELISA in transient transfected 293A cells (Example H); type: cell-based; details: cellular activity; Mer autophosphorylation ELISA in transient transfected 293A cells
Method in brief: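 IC50 from phospho-Mer ELISA of MERTK-transfected 293A cell lysates after 1 h treatment with serially diluted compound in serum-free medium.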

[2] = molecular target: Met (phospho-Met, HGF-stimulated PC-3 prostate cancer cells) (Homo sapiens (Human), UniProt P08581); assay: Met autophosphorylation ELISA in PC-3 cells (Example F); type: cell-based; details: cellular activity; Met autophosphorylation ELISA in PC-3 cells; read-out: c-Met IC50
Chain of Met (phospho-Met, HGF-stimulated PC-3 prostate cancer cells) (P08581 25-1390): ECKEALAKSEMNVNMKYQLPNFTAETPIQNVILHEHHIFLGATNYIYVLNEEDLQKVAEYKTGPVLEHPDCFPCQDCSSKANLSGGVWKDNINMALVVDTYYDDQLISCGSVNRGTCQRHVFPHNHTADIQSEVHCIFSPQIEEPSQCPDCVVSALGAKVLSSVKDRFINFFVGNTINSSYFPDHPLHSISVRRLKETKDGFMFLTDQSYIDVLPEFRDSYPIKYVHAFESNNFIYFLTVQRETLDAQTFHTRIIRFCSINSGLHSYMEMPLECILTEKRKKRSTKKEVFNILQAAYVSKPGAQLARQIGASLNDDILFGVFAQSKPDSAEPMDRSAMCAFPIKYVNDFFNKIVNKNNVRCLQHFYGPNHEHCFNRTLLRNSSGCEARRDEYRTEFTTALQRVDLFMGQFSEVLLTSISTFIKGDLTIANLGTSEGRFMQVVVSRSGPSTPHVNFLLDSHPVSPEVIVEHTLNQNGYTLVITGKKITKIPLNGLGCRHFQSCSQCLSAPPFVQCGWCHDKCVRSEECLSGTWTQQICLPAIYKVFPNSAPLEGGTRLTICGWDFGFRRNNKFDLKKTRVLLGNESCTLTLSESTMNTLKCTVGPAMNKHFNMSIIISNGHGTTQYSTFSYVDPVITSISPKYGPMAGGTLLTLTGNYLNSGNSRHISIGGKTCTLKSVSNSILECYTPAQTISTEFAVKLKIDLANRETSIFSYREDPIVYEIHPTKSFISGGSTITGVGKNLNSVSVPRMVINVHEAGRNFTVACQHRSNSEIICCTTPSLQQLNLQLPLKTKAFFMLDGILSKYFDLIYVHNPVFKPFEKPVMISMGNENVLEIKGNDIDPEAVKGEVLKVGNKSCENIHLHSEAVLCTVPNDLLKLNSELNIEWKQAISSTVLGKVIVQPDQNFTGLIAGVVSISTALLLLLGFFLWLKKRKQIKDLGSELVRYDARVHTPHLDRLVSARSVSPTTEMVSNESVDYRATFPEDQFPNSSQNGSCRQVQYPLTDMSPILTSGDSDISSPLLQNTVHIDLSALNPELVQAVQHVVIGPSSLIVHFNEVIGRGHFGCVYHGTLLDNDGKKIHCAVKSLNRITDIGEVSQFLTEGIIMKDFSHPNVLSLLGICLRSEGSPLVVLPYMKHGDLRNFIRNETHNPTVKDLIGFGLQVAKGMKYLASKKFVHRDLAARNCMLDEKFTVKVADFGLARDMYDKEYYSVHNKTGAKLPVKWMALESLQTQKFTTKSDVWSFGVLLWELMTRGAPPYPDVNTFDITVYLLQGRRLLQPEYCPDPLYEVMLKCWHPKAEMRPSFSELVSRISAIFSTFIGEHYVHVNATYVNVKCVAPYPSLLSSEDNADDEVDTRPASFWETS
Method in brief: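 Compounds were tested on HGF-stimulated PC-3 cells. After 24 h culture and 3 h serum starvation, cells got compound for 1 h and 100 ng/mL HGF for 10 min, and Met tyrosine phosphorylation was measured by ELISA.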

[3] = molecular target: Human KDR (residues 790-1356) (Homo sapiens (Human), UniProt P35968); assay: Human KDR kinase assay, HTRF KinEase (Example B-2); type: biochemical; details: protocol of Example B-2 (other compounds)
Chain of Human KDR (residues 790-1356) (P35968 790-1356): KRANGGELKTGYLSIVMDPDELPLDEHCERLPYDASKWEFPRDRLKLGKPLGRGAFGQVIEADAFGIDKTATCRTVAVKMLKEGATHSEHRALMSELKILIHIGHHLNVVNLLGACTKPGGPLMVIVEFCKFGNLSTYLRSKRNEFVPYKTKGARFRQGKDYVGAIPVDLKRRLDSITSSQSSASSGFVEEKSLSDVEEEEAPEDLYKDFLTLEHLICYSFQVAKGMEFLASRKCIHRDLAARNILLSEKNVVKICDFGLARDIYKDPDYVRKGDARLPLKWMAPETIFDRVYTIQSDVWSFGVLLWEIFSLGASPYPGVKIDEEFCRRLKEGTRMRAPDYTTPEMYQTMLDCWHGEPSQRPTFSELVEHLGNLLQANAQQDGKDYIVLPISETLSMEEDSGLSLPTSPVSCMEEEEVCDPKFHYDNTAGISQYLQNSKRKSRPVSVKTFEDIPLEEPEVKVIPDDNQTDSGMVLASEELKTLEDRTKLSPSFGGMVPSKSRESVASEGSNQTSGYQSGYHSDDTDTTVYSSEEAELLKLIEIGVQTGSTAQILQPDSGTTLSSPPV
Method in brief: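 Ten compound concentrations (3% DMSO final) were pre-plated, then KDR (790-1356) with biotinylated peptide in Mg/Mn/DTT buffer was added; ATP at Km (4.0 μM) started a 40 min room-temperature reaction. Detection used Eu-TK antibody and SA-XL665 in EDTA buffer; activity normalized to DMSO and reference inhibitor, IC50 by logistic fit.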

Chain of Mer (phospho-Mer, MERTK-transfected 293A cells) (Q12866 21-999): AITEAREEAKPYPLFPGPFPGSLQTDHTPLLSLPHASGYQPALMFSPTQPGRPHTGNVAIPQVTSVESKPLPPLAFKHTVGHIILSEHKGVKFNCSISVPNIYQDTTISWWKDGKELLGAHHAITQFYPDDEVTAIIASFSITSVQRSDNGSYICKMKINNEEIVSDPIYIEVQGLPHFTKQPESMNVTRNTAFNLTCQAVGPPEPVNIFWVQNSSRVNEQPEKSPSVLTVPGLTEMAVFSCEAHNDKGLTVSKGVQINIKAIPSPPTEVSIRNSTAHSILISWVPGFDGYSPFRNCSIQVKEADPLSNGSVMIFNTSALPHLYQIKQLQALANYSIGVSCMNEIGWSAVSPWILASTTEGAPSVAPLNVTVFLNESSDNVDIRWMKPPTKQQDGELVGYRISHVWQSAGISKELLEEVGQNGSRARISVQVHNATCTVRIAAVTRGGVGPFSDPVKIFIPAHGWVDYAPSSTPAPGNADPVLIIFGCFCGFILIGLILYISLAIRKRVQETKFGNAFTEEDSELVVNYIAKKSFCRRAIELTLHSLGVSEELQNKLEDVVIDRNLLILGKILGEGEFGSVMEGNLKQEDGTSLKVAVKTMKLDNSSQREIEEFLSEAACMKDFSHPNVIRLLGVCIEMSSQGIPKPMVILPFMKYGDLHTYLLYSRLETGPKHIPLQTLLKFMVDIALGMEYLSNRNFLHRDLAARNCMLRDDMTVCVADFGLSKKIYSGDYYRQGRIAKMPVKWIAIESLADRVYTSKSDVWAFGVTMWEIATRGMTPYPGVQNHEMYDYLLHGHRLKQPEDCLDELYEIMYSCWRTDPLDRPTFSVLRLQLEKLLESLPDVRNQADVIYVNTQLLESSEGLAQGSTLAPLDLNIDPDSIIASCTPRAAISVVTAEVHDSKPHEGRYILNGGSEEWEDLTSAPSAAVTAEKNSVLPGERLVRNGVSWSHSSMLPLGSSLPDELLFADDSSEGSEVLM

| IC50 [1] [nM] | IC50 [2] [nM] | IC50 [3] [nM] | SMILES |
| --- | --- | --- | --- |
| < 100 | < 100 | < 100 | COc1cnc2c(Oc3ccc(NC(=O)c4c(C)ncc(-c5ccc(F)cc5)c4O)cc3)ccnc2c1 [Compound 236, 5-(4-Fluorophenyl)-4-hydroxy-N-[4-[(7-methoxy-1,5-naphthyridin-4-yl)oxy]phenyl]-2-methylpyridine-3-carboxamide] |
| < 100 | < 100 | > 300 | COc1cnc2c(Oc3ccc(NC(=O)c4n[nH]c(C)c(-c5ccc(F)cc5C)c4=O)cc3)ccnc2c1 [Compound 248, 5-(4-Fluoro-2-methylphenyl)-N-[4-[(7-methoxy-1,5-naphthyridin-4-yl)oxy]phenyl]-6-methyl-4-oxo-1H-pyridazine-3-carboxamide] |
| < 100 | < 100 | < 100 | COCc1nc(C)c(-c2ccc(F)cc2)c(O)c1C(=O)Nc1ccc(Oc2ccnc3cc(OC)c(OC)nc23)cc1 [Compound 190, N-[4-[(6,7-Dimethoxy-1,5-naphthyridin-4-yl)oxy]phenyl]-5-(4-fluorophenyl)-4-hydroxy-2-(methoxymethyl)-6-methylpyridine-3-carboxamide] |
| < 100 | < 100 | < 100 | COCc1nc(C)c(-c2ccc(F)cc2)c(O)c1C(=O)Nc1ccc(Oc2ccnc3cc(OC)cnc23)cc1 [Compound 185, 5-(4-Fluorophenyl)-4-hydroxy-2-(methoxymethyl)-N-[4-[(7-methoxy-1,5-naphthyridin-4-yl)oxy]phenyl]-6-methylpyridine-3-carboxamide] |
| < 100 | < 100 | 100 to 300 | COCCOc1nc2c(Oc3ccc(NC(=O)c4n[nH]c(C)c(-c5ccc(F)cc5C)c4=O)cc3F)ccnc2cc1OC [Compound 252, N-[3-Fluoro-4-[[7-methoxy-6-(2-methoxyethoxy)-1,5-naphthyridin-4-yl]oxy]phenyl]-5-(4-fluoro-2-methylphenyl)-6-methyl-4-oxo-1H-pyridazine-3-carboxamide] |
| < 100 | < 100 | 100 to 300 | COc1cc2nccc(Oc3ccc(NC(=O)c4cn(C(C)C)c(C)c(-c5ccc(F)cc5C)c4=O)cc3F)c2nc1OC [Compound 32, N-[4-[(6,7-Dimethoxy-1,5-naphthyridin-4-yl)oxy]-3-fluorophenyl]-5-(4-fluoro-2-methylphenyl)-6-methyl-4-oxo-1-propan-2-ylpyridine-3-carboxamide hydrochloride] |
| < 100 | < 100 | < 100 | COc1cc2nccc(Oc3ccc(NC(=O)c4ncc(C)n(-c5ccc(F)cc5)c4=O)cc3)c2nc1OC [Compound 262, N-[4-[(6,7-Dimethoxy-1,5-naphthyridin-4-yl)oxy]phenyl]-4-(4-fluorophenyl)-5-methyl-3-oxopyrazine-2-carboxamide] |
| < 100 | < 100 | > 300 | COc1cnc2c(Oc3ccc(NC(=O)c4n[nH]c(C)c(-c5ccc(F)cc5C)c4=O)cc3F)ccnc2c1 [Compound 249A, N-[3-Fluoro-4-[(7-methoxy-1,5-naphthyridin-4-yl)oxy]phenyl]-5-(4-fluoro-2-methylphenyl)-6-methyl-4-oxo-1H-pyridazine-3-carboxamide] |
| < 100 | < 100 | > 300 | CCn1cc(-c2ccc(F)cc2)c(=O)c(C(=O)Nc2ccc(Oc3ccnc4cc(OC)cnc34)c(F)c2)c1C [Compound 240, 1-Ethyl-N-[3-fluoro-4-[(7-methoxy-1,5-naphthyridin-4-yl)oxy]phenyl]-5-(4-fluorophenyl)-2-methyl-4-oxopyridine-3-carboxamide] |
| < 100 | < 100 | > 300 | COc1cnc2c(Oc3ccc(NC(=O)c4cnc(C)c(-c5ccc(F)cc5C)c4O)cc3)ccnc2c1 [Compound 176, 5-(4-Fluoro-2-methylphenyl)-4-hydroxy-N-[4-[(7-methoxy-1,5-naphthyridin-4-yl)oxy]phenyl]-6-methylpyridine-3-carboxamide] |
| < 100 | < 100 | > 300 | COc1cnc2c(Oc3ccc(NC(=O)c4nn(C)c(C)c(-c5ccc(F)cc5)c4=O)cc3)ccnc2c1 [Compound 251, 5-(4-Fluorophenyl)-N-[4-[(7-methoxy-1,5-naphthyridin-4-yl)oxy]phenyl]-1,6-dimethyl-4-oxopyridazine-3-carboxamide] |
| < 100 | < 100 | < 100 | CCc1nc(C)c(-c2ccc(F)cc2)c(O)c1C(=O)Nc1ccc(Oc2ccnc3cc(OC)cnc23)c(F)c1 [Compound 180, 2-Ethyl-N-[3-fluoro-4-[(7-methoxy-1,5-naphthyridin-4-yl)oxy]phenyl]-5-(4-fluorophenyl)-4-hydroxy-6-methylpyridine-3-carboxamide] |
| < 100 | < 100 | 100 to 300 | COc1cc2nccc(Oc3ccc(NC(=O)c4cn(C)c(C)c(-c5ccc(F)cc5C)c4=O)cc3)c2nc1OC [Compound 196, N-[4-[(6,7-Dimethoxy-1,5-naphthyridin-4-yl)oxy]phenyl]-5-(4-fluoro-2-methylphenyl)-1,6-dimethyl-4-oxopyridine-3-carboxamide] |
| < 100 | < 100 | > 300 | COc1cnc2c(Oc3ccc(NC(=O)c4nnc(C)c(-c5ccc(F)cc5C)c4O)cc3F)ccnc2c1 (single isomer, unassigned) [Compound 249B, N-[3-Fluoro-4-[(7-methoxy-1,5-naphthyridin-4-yl)oxy]phenyl]-5-(4-fluoro-2-methylphenyl)-4-hydroxy-6-methylpyridazine-3-carboxamide] |
| < 100 | < 100 | < 100 | COc1cc2nccc(Oc3ccc(NC(=O)c4c(C)nc(C)c(-c5ccc(F)cc5C)c4O)cc3F)c2nc1OC [Compound 177, N-[4-[(6,7-Dimethoxy-1,5-naphthyridin-4-yl)oxy]-3-fluorophenyl]-5-(4-fluoro-2-methylphenyl)-4-hydroxy-2,6-dimethylpyridine-3-carboxamide] |
| < 100 | < 100 | < 100 | CCc1nc(C)c(-c2ccc(F)cc2)c(O)c1C(=O)Nc1ccc(Oc2ccnc3cc(OC)c(OC)nc23)c(F)c1 [Compound 179, N-[4-[(6,7-Dimethoxy-1,5-naphthyridin-4-yl)oxy]-3-fluorophenyl]-2-ethyl-5-(4-fluorophenyl)-4-hydroxy-6-methylpyridine-3-carboxamide] |
| < 100 | < 100 | < 100 | COc1cc2nccc(Oc3ccc(NC(=O)c4ccc(C)n(-c5ccc(F)cc5C)c4=O)cc3)c2nc1OC [Compound 225, N-[4-[(6,7-Dimethoxy-1,5-naphthyridin-4-yl)oxy]phenyl]-1-(4-fluoro-2-methylphenyl)-6-methyl-2-oxopyridine-3-carboxamide] |
| < 100 | 100 to 300 | > 300 | COc1ccc2nccc(Oc3ccc(NC(=O)c4cn(C)c(CO)c(-c5ccc(F)cc5)c4=O)cc3F)c2n1 [Compound 224, N-[3-Fluoro-4-[(6-methoxy-1,5-naphthyridin-4-yl)oxy]phenyl]-5-(4-fluorophenyl)-6-(hydroxymethyl)-1-methyl-4-oxopyridine-3-carboxamide] |
| < 100 | < 100 | 100 to 300 | CCc1nc(C)c(-c2ccc(F)cc2)c(O)c1C(=O)Nc1ccc(Oc2ccnc3ccc(OC)nc23)c(F)c1 [Compound 182, 2-Ethyl-N-[3-fluoro-4-[(6-methoxy-1,5-naphthyridin-4-yl)oxy]phenyl]-5-(4-fluorophenyl)-4-hydroxy-6-methylpyridine-3-carboxamide] |
| < 100 | < 100 | > 300 | COc1cnc2c(Oc3ccc(NC(=O)c4cn(C)c(CO)c(-c5ccc(F)cc5)c4=O)cc3F)ccnc2c1 [Compound 222, N-[3-Fluoro-4-[(7-methoxy-1,5-naphthyridin-4-yl)oxy]phenyl]-5-(4-fluorophenyl)-6-(hydroxymethyl)-1-methyl-4-oxopyridine-3-carboxamide] |
| < 100 | < 100 | > 300 | COc1cnc2c(Oc3ccc(NC(=O)c4cn(CC(F)(F)F)c(C)c(-c5ccc(F)cc5)c4=O)cc3F)ccnc2c1 [Compound 261, N-[3-Fluoro-4-[(7-methoxy-1,5-naphthyridin-4-yl)oxy]phenyl]-5-(4-fluorophenyl)-6-methyl-4-oxo-1-(2,2,2-trifluoroethyl)pyridine-3-carboxamide] |
| < 100 | < 100 | > 300 | COc1ccc2nccc(Oc3ccc(NC(=O)c4c(C)n(C)cc(-c5ccc(F)cc5)c4=O)cc3F)c2n1 [Compound 243, N-[3-Fluoro-4-[(6-methoxy-1,5-naphthyridin-4-yl)oxy]phenyl]-5-(4-fluorophenyl)-1,2-dimethyl-4-oxopyridine-3-carboxamide] |
| < 100 | < 100 | < 100 | COCCOc1nc2c(Oc3ccc(NC(=O)c4c(COC)nc(C)c(-c5ccc(F)cc5)c4O)cc3F)ccnc2cc1OC [Compound 199, N-[3-Fluoro-4-[[7-methoxy-6-(2-methoxyethoxy)-1,5-naphthyridin-4-yl]oxy]phenyl]-5-(4-fluorophenyl)-4-hydroxy-2-(methoxymethyl)-6-methylpyridine-3-carboxamide] |
